{"source": "patent US20090142304A1", "about": "“Composition for Improving Intestinal Flora” (priority 2005, published 2009)", "assay_type_in_all_cases": "in vivo", "key": {"[1]": {"system": "lactic acid bacteria belonging to genus Lactobacillus", "experiment": "Growth effect on lactic acid bacteria in human intestine by intake of 1-kestose (Example 1, fecal count, Mitsuoka method)", "text": "(§1) Quantitative determination of intestinal lactic acid bacteria counts can be carried out by a conventional method. For example, the lactic acid bacteria counts can be quantitatively determined according to the Mitsuoka's method (Mitsuoka Tomotari, “Chounaikin no Sekai (The World of Intestinal Bacteria)”, Sobunsha Co., Ltd., Tokyo, p. 53-65) by sampling feces of a tested subject. The intestinal Bifidobacterium count can be similarly quantitatively determined.\n(§2) A sample composition containing 99.4% of 1-kestose, 0.15% of acesulfame potassium, 0.32% of sucralose and 0.13% of Sweetness Enhancer ME-2208T (Trade Name) (Firmenich SA) was used (all by % by weight).\nIn a test, each 10 g per day of the sample composition was fed orally for 2 months to 7 male and female test subjects with mild diabetes in the age range of 20 to 70 years. Samples of the feces of the respective subjects were collected just before the start of intake (month 0), 2 months after the start of intake (month 2) and 1 month after the end of intake (month 3), and the lactic acid bacteria counts in the samples were quantitatively determined by the method of Mitsuoka (Mitsuoka Tomotari “Chounaikin no Sekai (The World of Intestinal Bacteria)” Sobunsha Co., Ltd., Tokyo, p. 53-65). Similarly, the Bifidobacterium counts in the samples were quantitatively determined.\nBy 5 out of the subjects 7, lactic acid bacteria belonging to genus Lactobacillus were detected at 10^6 CFU/g-feces or higher, and the changes of the lactic acid bacteria count and the Bifidobacterium count by the intake of 1-kestose with respect to the 5 subjects are shown in the Figures."}, "Bifidobacterium [2]": {"system": "Bifidobacterium", "experiment": "Growth effect on Bifidobacterium in human feces by intake of 1-kestose (Example 1)", "conditions": "10 g per day orally for 2 months, 5 mild diabetes subjects", "text": "as §1, §2\nIn a test, each 10 g per day of the sample composition was fed orally for 2 months to 7 male and female test subjects with mild diabetes in the age range of 20 to 70 years. Samples of the feces of the respective subjects were collected just before the start of intake (month 0), 2 months after the start of intake (month 2) and 1 month after the end of intake (month 3), and the lactic acid bacteria counts in the samples were quantitatively determined by the method of Mitsuoka (Mitsuoka Tomotari “Chounaikin no Sekai (The World of Intestinal Bacteria)” Sobunsha Co., Ltd., Tokyo, p. 53-65). Similarly, the Bifidobacterium counts in the samples were quantitatively determined. […]"}, "Lactobacillus sp.": {"system": "Lactobacillus sp.", "experiment": "Growth effect on lactic acid bacteria in human feces by intake of Meioligo P (Example 2)", "text": "as §1\n(§3) As a sample composition, Meioligo P (Trade Name) (Meiji Seika Kaisha), which was a composition containing 35% of 1-kestose, 55% of nystose and 10% of fructo-furanosyl nystose, was used.\n(§4) In a test, each 3 g per day of the sample composition (1.05 g based on the weight of 1-kestose) was fed orally for 2 months to 7 healthy female test subjects in the age range of 19 to 41 years. Samples of the feces of the respective subjects were then collected just before the start of intake (week 0), 2 weeks after the start of intake (week 2) and 2 weeks after the end of intake (week 4), and the lactic acid bacteria count and the Bifidobacterium count in the samples were quantitatively determined similarly to Example 1.\n(§5) The changes of the lactic acid bacteria count and the Bifidobacterium count in the feces by the intake of 1-kestose with respect to the 7 subjects are shown in the Figures."}, "Bifidobacterium [3]": {"system": "Bifidobacterium", "experiment": "Growth effect on Bifidobacterium in human feces by intake of Meioligo P (Example 2)", "conditions": "fed as Meioligo P 3 g per day (1.05 g 1-kestose)", "text": "as §1, §3, §4, §5"}}, "data": [{"smiles": "OC[C@H]1O[C@@](CO)(OC[C@@]2(O[C@H]3O[C@H](CO)[C@@H](O)[C@H](O)[C@H]3O)O[C@H](CO)[C@@H](O)[C@@H]2O)[C@@H](O)[C@@H]1O", "note": "[1-kestose]", "values": [{"measurement": "increase of mean Lactobacillus sp. count, after vs before the intake", "setting": "[1]; 10 g per day orally for 2 months, 5 mild diabetes subjects", "result": "about 10 fold"}, {"measurement": "effect of the composition containing 1-kestose by lactic acid bacteria count in the feces", "setting": "[1]; human whose lactic acid bacteria count in the feces is ≧10^6 CFU/g or higher (Example 1)", "result": "stronger"}, {"measurement": "subjects in whom the count of Lactobacillus sp. was increased by intake", "setting": "[1]; sample composition 99.4% 1-kestose, 10 g per day orally for 2 months, subjects with mild diabetes with Lactobacillus at 10^6 CFU/g-feces or higher (5 of 7)", "result": "4 out of the 5"}, {"measurement": "increase of mean Bifidobacterium count, after vs before the intake", "setting": "Bifidobacterium [2]", "result": "about 7 fold"}, {"measurement": "subjects in whom the Bifidobacterium count was increased", "setting": "Bifidobacterium [2]; sample composition 99.4% 1-kestose", "result": "all of 5"}, {"measurement": "increase of mean Lactobacillus sp. count, after vs before the intake", "setting": "Lactobacillus sp.; fed as Meioligo P 3 g per day (1.05 g 1-kestose), 7 healthy females", "result": "about 20 fold"}, {"measurement": "increase of Lactobacillus sp. count in each of the 4 subjects with increase", "setting": "Lactobacillus sp.; fed as Meioligo P 3 g per day (1.05 g 1-kestose), the 4 subjects with increase", "result": "≥ 10", "unit": "fold"}, {"measurement": "subjects in whom the count of Lactobacillus sp. was increased by intake", "setting": "Lactobacillus sp.; fed as Meioligo P (35% 1-kestose, 55% nystose, 10% fructo-furanosyl nystose), 3 g per day (1.05 g 1-kestose) orally, 7 healthy female subjects", "result": "4 out of 7"}, {"measurement": "subjects in whom the Bifidobacterium count was increased", "setting": "Bifidobacterium [3]; 7 healthy female subjects", "result": "6 out of the 7"}, {"measurement": "increase of mean Bifidobacterium count, after vs before the intake", "setting": "Bifidobacterium [3]; 7 healthy females", "result": "about 2 fold"}]}]}
